Where a name gives a salt, the structure may show the parent alone.
Assays:
[1] = test system: angiotensin-I-induced hypertension; test: Antihypertensive activity: inhibition of angiotensin I-induced hypertension (Laubie et al.); format: in vivo, rats; details: angiotensin I 100 μg/Kg i.v.
Description: The antihypertensive activity of the nitrate salts of the compounds of the invention was determined in accordance with the method of Laubie et al., J. Cardiovasc. Pharmacol. 6, 1076, 1984. No 6 rats weighing about 200 to 250 g were used per experimental group. Four groups were formed, which were intraperitoneally treated respectively as shown below:
The doses are referred to the amount of Enalapril (cation) in the salt. The antihypertensive response was evaluated as per-cent inhibition of the hypertension induced by the administration of a dose of 100 μg/Kg i.v. of angiotensin I as described in the above article.

[2] = test system: bronchial spasm induced by substance P; test: Bronchial spasm induced by substance P (Subissi et al.; Konzett); format: in vivo, female Guinea pigs; details: for Tidal air change % in bronchial spasm induced by substance P: 30 minutes before substance P (200 μg/Kg)
Description: Activity was evaluated measuring the strengthening of bronchial spasm induced by substance P, determined in accordance with the method of Subissi et al., Br. J. Pharmacol. 100, 502-6, 1990. The model described by Subissi is predictive of bronchial side effects due to the administration of ACE inhibitors.
Four groups (6 animals/group) of female Guinea pigs weighing about 300 to 400 g were anaesthetised with ethyl urethane (200 mg/Kg) under artificial pressure at constant positive pressure. The compounds were administered intra-peritoneally 30 minutes before substance P. The salt doses administered were the same as in Example 4. The changes in tidal air were then measured in accordance wuth the method of Konzett, Arch. Exp. Pathol. Pharmacol. 195, 71, 1940, before and after the administration of substance P (200 μg/Kg), with or without the test salts, i.e. Enalapril maleate and nitrate.

[3] = test system: platelet aggregation (collagen-induced); test: Platelet-antiaggregating activity, in-vivo collagen model (Pinon et al.); set-up: species or system rats; details: 10 mg/Kg/os per day (as Enalapril cation) for five days; collagen 2 mg/Kg i.v.; referred to control group
Description: The in-vivo model described by Pinon et al., J. Pharm. Methods 12, 79-84, 1984, was used.
Two groups of 6 rats each, weighing about 200 to 250 g, were treated with an oral. dose of 10 mg/Kg/die of Enalapril maleate or nitrate respectively (the dose is referred to the amount of Enalapril cation in the salt) for five days, while a third group acted as a control group. About 18 hours before the last treatment, the animals were fasted. One hour after this treatment the animals were anaesthetised with 10% ethyl urethane (1 g/Kg intraperitoneally) and the left jugular vein and the right carotid artery were cannulated. Collagen (type 6, Sigma) was then administered intravenously at a dose of 2 mg/Kg. Three minutes later two blood samples, A and B, were collected from the carotid artery of each animal.
1.6 ml of EDTA/formalin buffer (24 mM tetrasodium EDTA, 1.3 mM KH2 PO4, 13.4 mM Na2 HPO4) was added to the first sample (sample A) containing 0.4 ml of blood.
The second blood sample (sample B) had the same volume as the previous sample (0.4 ml of blood) but, instead of the buffer, 1.6 ml of a saline solution (physiological NaCl solution) was added. […]
A microscope platelet count was then performed. […] The results shown in Table III are expressed as a % of platelet aggregation and are referred to the % value obtained in the control group.

[4] = 100 μg/Kg/i.p. (as Enalapril cation)
[5] = 300 μg/Kg/i.p. (as Enalapril cation)

Structure (SMILES) | Inhibition % for angiotensin-I-induced hypertension [1, 4] [%] | Inhibition % for angiotensin-I-induced hypertension [1, 5] [%] | Tidal air change % in bronchial spasm induced by substance P ([2]; 100 μg/Kg/i.p.) | Tidal air change % in bronchial spasm induced by substance P ([2]; 300 μg/Kg/i.p.) | Respiratory profile ([2]; compared to Enalapril maleate, 100 and 300 μg/Kg i.p.) | Antiaggregating activity % [3] [%]
CCOC(=O)[C@H](CCc1ccccc1)N[C@@H](C)C(=O)N1CCC[C@H]1C(=O)O [Enalapril nitrate, (S)-1-[N-[1-(ethoxycarbonyl)-3-phenylpropyl]-L-alanyl]-L-proline] | 35 | 67 | -5% | -7% | better respiratory profile than Enalapril maleate at both tested doses | 58
CCOC(=O)[C@H](CCc1ccccc1)N[C@@H](C)C(=O)N1CCC[C@H]1C(=O)O [Enalapril maleate, reference compound] | 18 | 55 | +16% | +28% | – | 5

Source: patent US6218417A, “Ace-inhibitor nitric salts” (priority 1997, dated 2001)
